# Measured values reported in patent US9187486B2 (AMGEN INC., priority 2011, dated 2015).
# Like-named read-outs stand apart in the source and are kept apart here.
# Assays:
# [1] = tested on: KMS-12-BM myeloma cell line; assay: Pim cell assay: phospho-BAD (S112) and total BAD in KMS-12-BM cells; type: cell-based; conditions: 1 hour and 50 minutes incubation, read-out: KMS-12-BM IC50 IP
# Procedure: The KMS-12-BM myeloma cell line was used to determine the in vitro cellular inhibition of Pim kinases. Disruption of Pim signaling by Pim inhibitors was determined by measuring the levels of phospho-BAD (S112) and total BAD. […] The cells were then incubated overnight at 37° C., 5% CO2. […] In addition to the 10-point dosing curve of the test compound, DMSO alone was run as a control. This dilution in DMSO was then diluted again into cell growth medium. Aliquots (11.1 uL) of the compound diluted in growth medium were then transferred to the appropriate wells of the 96-well plates containing cells to yield a final DMSO concentration of 0.3%. The cell plates were then incubated with compound for 1 hour and 50 minutes at 37° C., 5% CO2. After the 1 hour and 50 min incubation, the cell plates were spun at 1000 RPM for 10 minutes and the compound-containing medium was removed. […] The cell plates containing lysis buffer were then immediately stored at −70° C. These prepared lysates were then assayed for phospho-(S112) and total-BAD according to the manufacturer's protocol (Meso Scale Diagnostics, Cat # K15103D-3). The plates were read on the MSD Sector Imager 6000, and results were calculated according to the assay protocol: ((% Phosphoprotein=((2×Phospho signal)/(Phospho signal+Total signal))×100)).
# Pim-1 = Pim-1 (Homo sapiens (Human), UniProt P11309); assay: Pim enzyme assay (HTRF, phosphorylation of biotinylated-BAD (S112) peptide), Pim-1; type: biochemical; conditions: full length recombinant Pim-1, biotinylated-BAD (S112) peptide, HTRF, 96-well; read-out: Pim-1 IC50 IP
# Text: (§1) Full-length human cDNAs encoding Pim-1 (MGC ID 3913552) or Pim-2 (IMAGE ID 5092935) were purchased from Invitrogen, Carlsbad, Calif. These cDNAs were used as templates in PCR reactions to produce full-length DNA clones of the PIMs. Oligonucleotide PCR primers for Pim-1 were 5′-[…]-3′ and 5′-[…]-3′. Oligonucleotide PCR primers for Pim-2 were 5′-[…]-3′ and 5′-[…]-3′. PCR products were digested with BclI and EcoRI for Pim-1 and BamHI and EcoRI for Pim-2 and ligated into a modified baculovirus transfer vector (pFastBac 1) cleaved with BamHI and EcoRI. For bacterial expression, the same cleaved PCR products encoding Pim-1 or Pim-2 were ligated into a modified E. coli expression vector pET28(a) cleaved with BamHI and EcoRI. Amino-terminal hexahistidine tags followed by a thrombin cleavage site were previously added to the vectors using standard methods of molecular biology. Recombinant baculoviruses expressing Pim-1 or Pim-2 were made using standard methods (Fastbac manual, Invitrogen, Carlsbad, Calif.). Infection of Sf9 cells was done at an m.o.i. of greater than 5 for 24-48 h. Cells were harvested by centrifugation and frozen at −80 C. For E. coli expression, cells carrying pET28-His6-Th-Pim-1 or pET28-His6-Th-Pim-2 were picked from a single colony and grown o/n in LB media. The o/n culture was used to inoculate a 2 liter flask with 500 mL media. This was grown o/n and used to inoculate 15-20 liters of Terrific Broth in a New Brunswick Scientific fermentor. The E. coli were grown at 37° C. to and OD600>1.6. The temperature was dropped to 18° C. and o/n expression was induced with 0.5 mM IPTG. Cells were harvested by centrifugation and frozen at −80° C.
# (§2) The frozen cell pellets were thawed by stirring in chilled lysis buffer (0.05 M HEPES, pH 8.0, 0.25 M NaCl, 0.01 M 2-mercaptoethanol, 10% (w/v) glycerol, 0.5% (v/v) protease inhibitor cocktail (Sigma P-8340) at a ratio of 1 L/200 g cells until homogeneous. The thawed suspension was applied to a microfluidizer at 10,000 PSI to disrupt the cells and the whole lysates were clarified by centrifugation at 50,000×g for 90 min, 4° C. Imidazole was added to the clarified lysate to a final concentration of 2.5 mM and the lysate was mixed with 10 mL of Talon resin (Clontech) and the slurry rocked gently overnight at 4° C. The slurry was centrifuged at 1,000×g for 5 min, the supernatant decanted, and the resin suspended in 40 mL of lysis wash buffer (lysis buffer at 0.75 M NaCl). This step was repeated 3× and the resin was transferred to a 2.5 cm glass column. Ten column volumes of wash buffer (0.05 M HEPES, pH 8.0, 0.1 M NaCl, 0.01 M 2-mercaptoethanol, 10% (w/v) glycerol) were applied to the resin followed by 10 column volumes of elution buffer (0.05 M HEPES, pH 8.0, 0.25 M NaCl, 0.01 M 2-mercaptoethanol, 10% (w/v) glycerol, 0.1 M imidazole). Fractions were analyzed by SDS-PAGE and those containing the protein of interest were pooled and concentrated. The concentrated protein was applied to an Amersham Superdex 75 (XK 26/60) column equilibrated in 0.025 M Tris-HCl, pH 7.5, 0.1 M NaCl, 0.01 M 2-mercaptoethanol, 10% (w/v) glycerol. […] Fractions containing the monomeric protein of interest were pooled, concentrated to ˜2 mg/mL, and stored at −80° C.
# (§3) The phosphorylation of biotinylated-BAD (S112) peptide by full length recombinant Pim-1, Pim-2, or Pim-3 protein was detected with streptavidin:Allophycocyanin (APC) conjugate and a europium (Eu) labeled antibody directed against phosphorylated-BAD (S112). Excitation of Eu by a high energy laser light (337 nm) leads to a transfer of energy to the APC molecule, and results in an emission at 665 nm. The fluorescence is directly proportional to the amount of phosphorylated BAD peptide present in the reaction.
# Pim-2 = Pim-2 (Homo sapiens (Human), UniProt Q9P1W9); assay: Pim enzyme assay (HTRF, phosphorylation of biotinylated-BAD (S112) peptide), Pim-2; type: biochemical; conditions: full length recombinant Pim-2, biotinylated-BAD (S112) peptide, HTRF, 96-well; read-out: Pim-2 IC50 IP
# Text: as §1, §2, §3
# Chain of Pim-2 (Q9P1W9 whole entry): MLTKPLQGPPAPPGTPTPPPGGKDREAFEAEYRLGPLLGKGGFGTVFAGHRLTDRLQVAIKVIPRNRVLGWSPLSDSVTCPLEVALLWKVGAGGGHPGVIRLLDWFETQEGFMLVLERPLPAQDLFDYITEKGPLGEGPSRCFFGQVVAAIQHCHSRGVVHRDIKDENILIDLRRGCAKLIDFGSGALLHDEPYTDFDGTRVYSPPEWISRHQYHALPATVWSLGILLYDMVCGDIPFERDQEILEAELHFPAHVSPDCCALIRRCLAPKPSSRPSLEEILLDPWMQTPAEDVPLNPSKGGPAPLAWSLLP
# Chain of Pim-1 (P11309 whole entry): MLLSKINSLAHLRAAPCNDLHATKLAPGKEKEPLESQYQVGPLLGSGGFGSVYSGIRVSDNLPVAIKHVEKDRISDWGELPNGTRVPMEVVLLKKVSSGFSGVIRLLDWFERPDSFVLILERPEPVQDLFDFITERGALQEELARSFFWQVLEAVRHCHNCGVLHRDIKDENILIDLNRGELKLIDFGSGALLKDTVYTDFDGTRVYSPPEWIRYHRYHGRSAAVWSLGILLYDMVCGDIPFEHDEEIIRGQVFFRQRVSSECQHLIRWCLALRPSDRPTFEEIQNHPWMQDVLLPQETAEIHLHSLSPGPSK
SMILES,"IC50 ([1]; Homo sapiens, KMS-12-BM)",IC50 (Pim-1),other results
"N[C@@H]1C=C(c2ccncc2Nc2ncc3ccc(-c4c(F)cccc4F)nn23)CCC1 (racemic) [Example 82, rac-N-(4-(3-aminocyclohex-1-en-1-yl)pyridin-3-yl)-2-(2,6-difluorophenyl)imidazo[1,5-b]pyridazin-7-amine tris(2,2,2-trifluoroacetate)]",1200 nM,1.2 nM,
"N[C@@H]1C=C(c2ccncc2Nc2ncc3ccc(-c4c(F)cccc4F)nn23)CC[C@H]1F (racemic) [Example 93, (2,2,2-trifluoroacetate)]",2600 nM,,IC50 (Pim-2): 15.5 nM
"C[C@@H]1C[C@H](N)CN(c2ccncc2Nc2ncc3ccc(-c4c(F)cccc4F)nn23)C1 (single isomer, unassigned) [Example 38, N-(4-((cis)-3-amino-5-methylpiperidin-1-yl)pyridin-3-yl)-2-(2,6-difluorophenyl)imidazo[1,5-b]pyridazin-7-amine]",,,IC50 [1]: 27.6 nM
"C[C@@H]1C[C@H](N)CN(c2ccncc2Nc2ncc3ccc(-c4c(F)cccc4F)nn23)C1 (single isomer, unassigned) [Example 39, N-(4-((cis)-3-amino-5-methylpiperidin-1-yl)pyridin-3-yl)-2-(2,6-difluorophenyl)imidazo[1,5-b]pyridazin-7-amine]",,,IC50 [1]: 1750 nM
"N[C@@H]1CN(c2ccncc2Nc2ncc3ccc(-c4c(F)cccc4F)nn23)CC[C@H]1F (single isomer, unassigned) [Example 45, N-(4-(trans-3-amino-4-fluoropiperidin-1-yl)pyridin-3-yl)-2-(2,6-difluorophenyl)imidazo[1,5-b]pyridazin-7-amine]",,,IC50 [1]: 1070 nM
"C[C@@H]1CN(c2ccncc2Nc2ncc3ccc(-c4c(F)cccc4F)nn23)[C@@H](C)CN1 (single isomer, unassigned) [Example 52, 2-(2,6-difluorophenyl)-N-(4-((trans)-2,5-dimethyl-1-piperazinyl)-3-pyridinyl)imidazo[1,5-b]pyridazin-7-amine]",> 15800 nM,,
"N[C@@H]1C=C(c2ccncc2Nc2ncc3ccc(-c4c(F)cccc4F)nn23)CCC1 (single isomer, unassigned) [Example 83, N-(4-(3-aminocyclohex-1-en-1-yl)pyridin-3-yl)-2-(2,6-difluorophenyl)imidazo[1,5-b]pyridazin-7-amine tris(2,2,2-trifluoroacetate)]",1090 nM,1.1 nM,
"C[C@H]1CC[C@H](N)CN1c1ccncc1Nc1ncc2ccc(-c3c(F)cccc3F)nn12 (single isomer, unassigned) [Example 87, N-(4-(5-amino-2-methylpiperidin-1-yl)pyridin-3-yl)-2-(2,6-difluorophenyl)imidazo[1,5-b]pyridazin-7-amine tris(2,2,2-trifluoroacetate)]",,,"IC50 ([1]; tris(2,2,2-trifluoroacetate)): 48.8 nM"
"C[C@H]1CC[C@H](N)CN1c1ccncc1Nc1ncc2ccc(-c3c(F)cccc3F)nn12 (single isomer, unassigned) [Example 88, N-(4-(5-amino-2-methylpiperidin-1-yl)pyridin-3-yl)-2-(2,6-difluorophenyl)imidazo[1,5-b]pyridazin-7-amine tris(2,2,2-trifluoroacetate)]",,,"IC50 ([1]; tris(2,2,2-trifluoroacetate)): 9820 nM"
"C[C@H]1CC[C@@H](N)CN1c1ccncc1Nc1ncc2ccc(-c3ncccc3F)nn12 (single isomer, unassigned) [Example 94, N-(4-((cis)-5-amino-2-methylpiperidin-1-yl)pyridin-3-yl)-2-(3-fluoropyridin-2-yl)imidazo[1,5-b]pyridazin-7-amine tris(2,2,2-trifluoroacetate)]",,,"IC50 ([1]; tris(2,2,2-trifluoroacetate)): 14100 nM"
"C[C@H]1CC[C@H](N)CN1c1ccncc1Nc1ncc2ccc(-c3ncccc3F)nn12 (single isomer, unassigned) [Example 97, N-(4-((trans)-5-amino-2-methylpiperidin-1-yl)pyridin-3-yl)-2-(3-fluoropyridin-2-yl)imidazo[1,5-b]pyridazin-7-amine tris(2,2,2-trifluoroacetate)]",362 nM,,
"N[C@H]1CCCN(c2ccncc2Nc2nnc3cccnn23)C1 [Example 68, 2,2,2-trifluoroacetate]",,38.3 nM,IC50 (Pim-2): 73.7 nM
"N[C@@H]1CCCN(c2ccncc2Nc2ncc3ccc(-c4c(F)cccc4F)nn23)C1 [Example 69, (R)-N-(4-(3-aminopiperidin-1-yl)pyridin-3-yl)-2-(2,6-difluorophenyl)imidazo[1,5-b]pyridazin-7-amine]",,7.6 nM,IC50 (Pim-2): 35.2 nM
"COC(C)CN(C)c1ccncc1Nc1ncc2ccc(-c3c(F)cccc3F)nn12 (stereo not shown) [Example 77, N3-(2-(2,6-difluorophenyl)imidazo[1,5-b]pyridazin-7-yl)-N4-(2-methoxypropyl)-N4-methylpyridine-3,4-diamine]",,150 nM,IC50 (Pim-2): > 1000 nM

# Second part, led by results:
"IC50 ([1]; Homo sapiens, KMS-12-BM)",IC50 (Pim-1),SMILES,other results
95 nM,,"C[C@@H]1C[C@H](N)CN(c2ccncc2Nc2ncc3ccc(-c4c(F)cccc4F)nn23)C1 (racemic) [Example 37, rac-N-(4-((cis)-3-amino-5-methylpiperidin-1-yl)pyridin-3-yl)-2-(2,6-difluorophenyl)imidazo[1,5-b]pyridazin-7-amine tris(2,2,2-trifluoroacetate)]",
465 nM,,"N[C@@H]1CN(c2ccncc2Nc2ncc3ccc(-c4c(F)cccc4F)nn23)CC[C@H]1F (racemic) [Example 43, rac-N-(4-(trans-3-amino-4-fluoropiperidin-1-yl)pyridin-3-yl)-2-(2,6-difluorophenyl)imidazo[1,5-b]pyridazin-7-amine]",
12100 nM,,"C[C@H]1CN(c2ccncc2Nc2ncc3ccc(-c4c(F)cccc4F)nn23)[C@@H](C)CN1 [Example 49, 2-(2,6-difluorophenyl)-N-(4-((2S,5S)-2,5-dimethylpiperazin-1-yl)pyridin-3-yl)imidazo[1,5-b]pyridazin-7-amine]",
,> 1000 nM,"N[C@H]1CCCN(c2cnccc2Nc2ncc3ccc(-c4c(F)cccc4F)nn23)C1 [Example 80, (S)-N-(3-(3-aminopiperidin-1-yl)pyridin-4-yl)-2-(2,6-difluorophenyl)imidazo[1,5-b]pyridazin-7-amine tetra(2,2,2-trifluoroacetate)]",IC50 (Pim-2): > 1000 nM
